Reference: paper PMC6070996 (Marine Drugs, 2018)

Tests used:
[1] = test system: plasmin; conditions: cited from earlier work
[2] = test system: papain; set-up: method as in doi:10.1021/np960649a; conditions: cited from earlier work
[3] = biological target: T1, Thrombin (Bos taurus, UniProt P00735); set-up: method as in doi:10.1021/np960649a; conditions: cited from earlier work
T1 construct: purchased Sigma-Aldrich T4648

[4] = test system: trypsin; conditions: cited from earlier work
[5] = biological target: Chymotrypsin; conditions: cited from earlier work
[6] = biological target: Elastase; set-up: method as in doi:10.1021/np960649a; conditions: cited from earlier work
[7] = test system: Daphnia magna; conditions: compared with microcystin-LR; cited from earlier work
[8] = test system: small crustaceans; set-up: method as in doi:10.2216/i0031-8884-35-6S-111.1, PMID 20405925, PMID 12662108; conditions: cited from earlier work
[9] = test system: isolated rat hepatocytes; set-up: method as in doi:10.2216/i0031-8884-35-6S-111.1; conditions: cited from earlier work
[10] = biological target: T1, Thrombin; test: thrombin inhibition assay; format: biochemical; set-up: key: - not active; */** small/medium activity; */** small/medium activity; conditions: highest concentration 45.4 μg/mL
[11] = test system: factor XIa; set-up: method as in PMID 20405925; conditions: cited from earlier work
[12] = biological target: T2, elastase from porcine pancreas (Sus scrofa, UniProt P00772); test: elastase inhibition assay; format: biochemical; set-up: key: - not active; */** small/medium activity; */** small/medium activity; conditions: highest concentration 45.4 μg/mL
T2 construct: purchased Sigma-Aldrich E0258; host or cells: porcine pancreas
T2 sequence (P00772 27-266): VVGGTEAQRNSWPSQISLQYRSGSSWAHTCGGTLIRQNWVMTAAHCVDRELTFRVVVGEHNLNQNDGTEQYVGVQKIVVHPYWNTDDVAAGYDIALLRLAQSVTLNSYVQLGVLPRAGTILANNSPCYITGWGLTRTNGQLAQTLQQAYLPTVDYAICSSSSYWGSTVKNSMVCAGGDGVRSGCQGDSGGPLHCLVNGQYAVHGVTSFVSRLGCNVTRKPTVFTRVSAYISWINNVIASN

[13] = biological target: T3, protein phosphatase 1 (PP1) (Oryctolagus cuniculus, UniProt P62139); test: protein phosphatase 1 inhibition assay; format: biochemical; set-up: key: - not active; */** small/medium activity; */** small/medium activity; conditions: highest concentration 45.4 μg/mL
T3 construct: purchased England Biolabs, Hitchin, UK (New England Biolabs) 754S
T3 sequence (P62139 whole entry): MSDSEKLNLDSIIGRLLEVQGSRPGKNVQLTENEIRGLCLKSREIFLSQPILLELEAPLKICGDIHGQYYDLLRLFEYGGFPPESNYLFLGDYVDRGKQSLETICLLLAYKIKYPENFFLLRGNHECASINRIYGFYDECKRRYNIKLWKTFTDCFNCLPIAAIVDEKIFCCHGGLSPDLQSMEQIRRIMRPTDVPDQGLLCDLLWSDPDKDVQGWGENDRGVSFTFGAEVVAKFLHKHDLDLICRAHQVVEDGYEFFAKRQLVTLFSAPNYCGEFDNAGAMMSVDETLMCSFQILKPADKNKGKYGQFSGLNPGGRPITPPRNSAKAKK

[14] = test system: human kallikrein; set-up: method as in PMID 20405925; conditions: cited from earlier work
[15] = test system: mice; conditions: cited from earlier work
[16] = test system: neuro-2A neuroblastoma cells; set-up: method as in PMID 18163584; conditions: cited from earlier work
[17] = test system: NCI H460 lung cancer cells; set-up: method as in PMID 18163584; conditions: cited from earlier work
[18] = test system: human hepatoma cell line Huh7; set-up: method as in PMID 27428998; conditions: cited from earlier work
[19] = test system: zebrafish eleuthero-embryos; set-up: method as in PMID 24561424; conditions: genes of DNA damage recognition and repair, circadian rhythm; cited from earlier work
[20] = test system: PP1; conditions: cited from earlier work
[21] = biological target: α-chymotrypsin from bovine pancreas (Bos taurus, UniProt P00766); test: chymotrypsin inhibition assay; format: biochemical; conditions: read-out: Enzyme Inhibition (IC50 [µM]) Chymotrypsin
[22] = biological target: T4, trypsin from porcine pancreas (Sus scrofa, UniProt P00761); test: trypsin inhibition assay; format: biochemical; set-up: key: - not active; */** small/medium activity; */** small/medium activity; conditions: class symbols
T4 construct: purchased Sigma-Aldrich T0303; host or cells: porcine pancreas
T4 sequence (P00761 9-231): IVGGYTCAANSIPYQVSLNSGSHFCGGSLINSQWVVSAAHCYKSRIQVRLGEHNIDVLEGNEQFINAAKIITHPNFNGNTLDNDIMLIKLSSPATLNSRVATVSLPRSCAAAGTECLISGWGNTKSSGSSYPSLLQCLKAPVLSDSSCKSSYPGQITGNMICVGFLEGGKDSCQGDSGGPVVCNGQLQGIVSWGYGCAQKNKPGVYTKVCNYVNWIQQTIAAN

[23] = test system: MCF-7 breast cancer cells; test: MTT cytotoxicity assay; format: cell-based; conditions: 24-h exposure, 0 to 500 μg/mL
Protocol: For the test, two CPs were selected: Arg^2-containing CP962 and Tyr^2-containing CP985. MCF-7 breast cancer cells were seeded at 7.5 × 10^3 cells/100 μL in a 96-well plates and incubated at 37 °C, 5% CO2 for 24 h. The cells were then treated for a further 24 h with CP962 and CP985 (0 to 500 μg/mL). After 24 h, sterile-filtered 3-(4,5-dimethylthiazol-2-yl)-2,5-diphenyltetrazolium bromide solution (MTT; 1 mg/mL) was added to each well. After 4 h incubation at 37 °C in the dark, the MTT solution was removed and formazan crystals solubilized in DMSO. The plates were shaken for 20 min, in the dark, at room temperature and absorbance was measured at 560 nm (Synergy/HT, BIOTEK, Wnooski, VT, USA). For each CP, three independent experiments were carried out and each treatment consisted of six replicates per plate. Bar charts were used to represent the viability of MCF-7 cells treated with CP962 and CP985, compared to the control (i.e., untreated cells) that represented 100% cell viability.

In the case of CCCC(=O)N[C@@H](CCC(N)=O)C(=O)N1CC(C)C2OC(=O)[C@H]([C@@H](C)CC)NC(=O)[C@H](Cc3ccc(O)cc3)N(C)C(=O)[C@H]([C@@H](C)CC)N3C(=O)C(CCC3O)NC(=O)[C@H](CC(C)C)NC(=O)[C@H]21 (stereo partly drawn) [Nostopeptin A, [Hmp+Leu+Ahp+Ile+MeTyr+Ile]Gln+BA], the “activity against plasmin” value [1] is listed as “inactive”, the “activity against papain” value [2] is listed as “inactive” and the “activity against thrombin” value [3] is listed as “inactive”. The “activity against trypsin” value [4] was “inactive”, the “Enzyme Inhibition Chymotrypsin IC50” value [5] was 1.4 µg/mL and the “Enzyme Inhibition Elastase IC50” value [6] was 1.3 µg/mL.

In the case of CC[C@H](C)[C@@H]1NC(=O)[C@H](Cc2ccccc2)N(C)C(=O)[C@H]([C@@H](C)CC)N2C(=O)[C@H](CC[C@H]2O)NC(=O)[C@H](CCCN=C(N)N)NC(=O)[C@@H](NC(=O)[C@@H](COS(=O)(=O)O)OS(=O)(=O)O)[C@@H](C)OC1=O [CP SS], the “inhibition of plasmin” value [1] is given as “inhibited plasmin”, the “toxicity against Daphnia magna” value [7] is given as “even higher than for microcystin-LR” and the “acute effects in small crustaceans” value [8] is given as “induced acute effects”. The “toxicity to isolated rat hepatocytes” value [9] was “not toxic”.

In the case of CCCCCC(=O)N[C@@H](CC(=O)O)C(=O)N[C@@H]1C(=O)N[C@@H](CCCNC(=N)N)C(=O)N[C@H]2CC[C@@H](O)N(C2=O)[C@@H](Cc2ccccc2)C(=O)N(C)[C@@H](CCc2ccc(O)cc2)C(=O)N[C@@H](C(C)C)C(=O)O[C@@H]1C [CP 1020, [Thr+Arg+Ahp+Phe+MeHty+Val]Asp+HA], the “activity against plasmin” value [1] is listed as “active”, the “Enzyme Inhibition Thrombin (activity class)” value [10] is listed as “-” and the “activity against factor XIa” value [11] is listed as “active”. The “Enzyme Inhibition Elastase (activity class)” value [12] was “-”, the “inhibition of trypsin” value [4] was “Picomolar inhibition” and the “activity against chymotrypsin” value [5] was “active”. For the same compound, the “Enzyme Inhibition Protein Phosphatase 1 (activity class)” value [13] was “-”, the “activity against human kallikrein” value [14] was “active” and the “acute effects in small crustaceans” value [8] was “induced acute effects”.

For Oscillapeptin J, the “acute effects in small crustaceans” value [8] is listed as “induced acute effects” and the “harmful effects in mice” value ([15]; administered intraperitoneally at concentrations up to 1000 µg/kg b.w.) is listed as “did not induce any harmful effects”.

In the case of CCCC(=O)N[C@@H](CCC(N)=O)C(=O)N[C@@H]1C(=O)N[C@@H](CCCNC(N)=O)C(=O)N[C@H]2CC[C@@H](O)N(C2=O)[C@@H]([C@@H](C)CC)C(=O)N(C)[C@@H](Cc2ccc(OC)c(Br)c2)C(=O)N[C@@H](C(C)C)C(=O)O[C@@H]1C [Symplocamide A], the “cytotoxic activity to neuro-2A neuroblastoma cells” value [16] is given as “cytotoxic activity”, the IC50 [4] is given as 80.2 µM and the IC50 ([5]; read-out: chymotrypsin IC50) is given as 0.38 µM. For the same compound, the “cytotoxic activity to NCI H460 lung cancer cells” value [17] was “cytotoxic activity”.

In the case of CCCCCC(=O)N[C@@H](CCC(=O)O)C(=O)N[C@@H]1C(=O)N[C@@H](CCCNC(=N)N)C(=O)N[C@H]2CC[C@@H](O)N(C2=O)[C@@H](Cc2ccccc2)C(=O)N(C)[C@@H](Cc2ccc(O)cc2)C(=O)N[C@@H](C(C)C)C(=O)O[C@@H]1C [CP1020, cyanopeptolin 1020], the “anti-inflammatory effects in Huh7” value [18] is given as “induction of anti-inflammatory effects” and the “transcriptional alterations of genes in zebrafish eleuthero-embryos” value [19] is given as “led to transcriptional alterations of genes”.

For CC[C@H](C)[C@H](NC(=O)[C@H](O)Cc1ccc(O)cc1)C(=O)N[C@@H](CCO)C(=O)N[C@@H]1C(=O)N[C@@H](CCO)C(=O)N[C@H]2CC[C@@H](O)N(C2=O)[C@@H](Cc2ccccc2)C(=O)N(C)[C@@H](Cc2ccc(O)cc2)C(=O)N[C@@H](C(C)C)C(=O)O[C@@H]1C [Nostocyclin, [Thr+Hse+Ahp+Phe+MeTyr+Val]Hse+Ile+Hpla], the “activity against protein phosphatases” value ([20]; protein phosphatases) is given as “weak activity”, the IC50 ([20]; read-out: Enzyme Inhibition PP1 IC50) is given as 64 µM and the “toxicity in mouse bioassay” value [15] is given as “not toxic”.

In the case of CC[C@H](C)[C@@H]1NC(=O)[C@H](Cc2ccc(O)cc2)N(C)C(=O)[C@H]([C@@H](C)CC)N2C(=O)C(CCC2O)NC(=O)[C@H](CC(C)C)NC(=O)[C@@H]2C(OC1=O)C(C)CN2C(=O)[C@H](CCC(N)=O)NC(C)=O (stereo partly drawn) [Nostopeptin B, [Hmp+Leu+Ahp+Ile+MeTyr+Ile]Gln+Ac], the “activity against plasmin” value [1] is given as “inactive”, the “activity against papain” value [2] is given as “inactive” and the “activity against thrombin” value [3] is given as “inactive”. The “activity against trypsin” value [4] was “inactive”, the “Enzyme Inhibition Chymotrypsin IC50” value [5] was 1.6 µg/mL and the “Enzyme Inhibition Elastase IC50” value [6] was 11.0 µg/mL.

In the case of CCCC(=O)NC(CC(=O)O)C(=O)NC1C(=O)NC(Cc2ccc(O)cc2)C(=O)NC2CCC(O)N(C2=O)C(Cc2ccccc2)C(=O)N(C)C(Cc2ccc(O)cc2)C(=O)NC(C(C)C)C(=O)OC1C (stereo not drawn) [CP 985, [Thr+Tyr+Ahp+Phe+MeTyr+Val]Asp+BA], the “Enzyme Inhibition Thrombin (activity class)” value [10] is reported as “-”, the “Enzyme Inhibition Elastase (activity class)” value [12] is reported as “-” and the IC50 [21] is reported as 0.26 µM. The “Enzyme Inhibition Protein Phosphatase 1 (activity class)” value [13] was “-”, the “Enzyme Inhibition Trypsin (activity class)” value [22] was “-” and the “cytotoxic effects on MCF-7 cells (MTT)” value [23] was “no cytotoxic effects”.
